This is an account of results in patent US8518997B2, “4-(phenoxyalkyl)thio)-phenoxyacetic acids and analogs” (Janssen Pharmaceutica N.V., priority 2003, dated 2013).

“And” between values parts separate entries of the source, which are not always exact repeats. Identical values can stand only once.

The target in the assay is T1, PPAR delta (Homo sapiens, UniProt Q03181).
T1 sequence (Q03181 171-441 limits assumed): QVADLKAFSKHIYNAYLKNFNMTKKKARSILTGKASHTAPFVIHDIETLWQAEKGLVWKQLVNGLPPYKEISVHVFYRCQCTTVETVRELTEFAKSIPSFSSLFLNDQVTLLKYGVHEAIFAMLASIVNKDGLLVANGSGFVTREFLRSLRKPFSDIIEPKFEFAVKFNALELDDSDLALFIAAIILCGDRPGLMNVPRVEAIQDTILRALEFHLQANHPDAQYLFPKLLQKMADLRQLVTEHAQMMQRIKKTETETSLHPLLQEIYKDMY
The experiment in a line: Transfection assay for PPAR receptors (PPAR-Gal4 / Gal4-Luciferase reporter in HEK293 cells). In kind it is cell-based. On the procedure: Transfection Assay Method for PPAR Receptors
HEK293 cells were grown in DMEM/F-12 Media supplemented with 10% FBS and glutamine (GIBCOBRL). The cells were co-transfected with DNA for PPAR-Gal4 (PPARα, γ or δ) receptor and Gal4-Luciferase Reporter using the DMRIE-C Reagent. On the following day, the medium was replaced with 5% Charcoal treated FBS growth medium. After six hours, cells were trypsinized and seeded at a density of 50,000 cell/well into 96 well plates and incubated overnight at 37° C. in a 5% CO2 incubator. Cells were then treated with test compounds or vehicle and incubated for 24 hours at 37° C. in a 5% CO2 incubator. Luciferase activity was assayed using the Steady-Glo Luciferase Assay Kit from Promega. […] Steady-Glo Luciferase Assay Kit was purchased from Promega Part# E254B.
On the technique in general: A reporter such as luciferase makes a cellular process visible.

[1] abbreviates: HEK293 cells co-transfected with PPAR-Gal4 (δ) receptor and Gal4-Luciferase reporter, 24 hours, multiple EC50's = multiple measurements, Table 2.

As for `Cc1cc(SCC(C)COc2ccc(C(F)(F)F)cc2)ccc1OCC(=O)O` (centres unmarked) [Compound 1, {2-Methyl-4-[2-methyl-3-(4-trifluoromethyl-phenoxy)-propylsulfanyl]-phenoxy}-acetic acid], the EC50 (in general, the concentration that produces a half-maximal response) under setting [1] was 9.2 nM and 5.6 nM. Consider `CCC(COc1ccc(C(F)(F)F)cc1)CSc1ccc(CC(=O)O)cc1Cl` (centres unmarked) [Compound 9, {3-Chloro-4-[2-(4-trifluoromethyl-phenoxymethyl)-butylsulfanyl]-phenyl}-acetic acid], for which, under setting [1], the EC50 is 16.6 nM and 18.5 nM. In the case of `CCOCC(COc1ccc(C(F)(F)F)cc1)CSc1ccc(OCC(=O)O)c(C)c1` (centres unmarked) [Compound 33, {4-[2-Ethoxymethyl-3-(4-trifluoromethyl-phenoxy)-propylsulfanyl]-2-methyl-phenoxy}-acetic acid], the EC50 under setting [1] was 4.7 nM and 4.6 nM.

On to `COCOC(COc1ccc(C(F)(F)F)cc1)CSc1ccc(OCC(=O)O)c(C)c1` (centres unmarked) [Compound 24, {4-[2-Methoxymethoxy-3-(4-trifluoromethyl-phenoxy)-propylsulfanyl]-2-methyl-phenoxy}-acetic acid], for which the EC50 under setting [1] is 6.3 nM and 6.6 nM (2×) and 5.1 nM and 6.4 nM and 3.7 nM. The compound `Cc1cc(SCCCOc2ccc(C(F)(F)F)cc2)ccc1OCC(=O)O` [{2-Methyl-4-[3-(4-trifluoromethyl-phenoxy)-propylsulfanyl]-phenoxy}-acetic acid] registered an EC50 (Table 3 compounds of interest, tested likewise) of 17.6 nM. For the compound `CCC(COc1ccc(C(F)(F)F)cc1)CSc1ccc(OCC(=O)O)c(C)c1` (centres unmarked) [Compound 3, {2-Methyl-4-[2-(4-trifluoromethyl-phenoxymethyl)-butylsulfanyl]-phenoxy}-acetic acid], the EC50 under setting [1] was 0.08 nM and 0.04 nM. For the compound `Cc1cc(SC[C@@H](COc2ccc(C(F)(F)F)cc2)OCc2ccc(Cl)s2)ccc1OCC(=O)O` [Compound 27, {4-[2-(5-Chloro-thiophen-2-ylmethoxy)-3-(4-trifluoromethyl-phenoxy)-propylsulfanyl]-2-methyl-phenoxy}-acetic acid], under setting [1], the EC50 is 11.9 nM and 18.5 nM. On to `Cc1ccc(OCCCSc2ccc(OCC(=O)O)c(C)c2)cc1` [Compound 8], for which, under setting [1], the EC50 came out at 215 nM. Turning to `CCOC(COc1ccc(C(F)(F)F)cc1)CSc1ccc(OCC(=O)O)c(C)c1` (centres unmarked) [Compound 17, {4-[2-Ethoxy-3-(4-trifluoromethyl-phenoxy)-propylsulfanyl]-2-methyl-phenoxy}-acetic acid], the EC50 under setting [1] is 4.2 nM and 3.2 nM and 1.5 nM and 4.5 nM and 0.69 nM and 2.7 nM. `Cc1cc(SCC(COc2ccc(C(F)(F)F)cc2)OCC(=O)O)ccc1OCC(=O)O` (centres unmarked) [Compound 26, {4-[2-Carboxymethoxy-3-(4-trifluoromethyl-phenoxy)-propylsulfanyl]-2-methyl-phenoxy}-acetic acid] showed an EC50 under setting [1] of 126 nM. The compound `Cc1cc(SCC(C/C=C/C#N)COc2ccc(C(F)(F)F)cc2)ccc1OCC(=O)O` (centres unmarked) [Compound 12, {4-[5-Cyano-2-(4-trifluoromethyl-phenoxymethyl)-pent-4-enylsulfanyl]-2-methyl-phenoxy}-acetic acid] had an EC50 under setting [1] of 19.9 nM.

As to `CCO[C@@H](COc1ccc(C(F)(F)F)cc1)CSc1ccc(OCC(=O)O)c(C)c1` [Compound 16, (S)-{4-[2-Ethoxy-3-(4-trifluoromethyl-phenoxy)-propylsulfanyl]-2-methyl-phenoxy}-acetic acid], the EC50 under setting [1] is 22.4 nM and 27.5 nM.

In turn, `CCCC(=O)c1ccc(OC(COc2ccc(C(F)(F)F)cc2)CSc2ccc(OCC(=O)O)c(C)c2)cc1` (centres unmarked) [Compound 30, {4-[2-(4-Butyryl-phenoxy)-3-(4-trifluoromethyl-phenoxy)-propylsulfanyl]-2-methyl-phenoxy}-acetic acid] gave an EC50 under setting [1] of 23.9 nM. For the compound `CCOC(/C=C/c1ccc(C(F)(F)F)cc1)CSc1ccc(OCC(=O)O)c(C)c1` (centres unmarked) [Compound 42, {4-[2-Ethoxy-4-(4-trifluoromethyl-phenyl)-but-3-enylsulfanyl]-2-methyl-phenoxy}-acetic Acid], the EC50 under setting [1] is 8 nM and 7.9 nM.

As for `CSCOC(COc1ccc(C(F)(F)F)cc1)CSc1ccc(OCC(=O)O)c(C)c1` (centres unmarked) [Compound 25, {2-Methyl-4-[2-methylsulfanylmethoxy-3-(4-trifluoromethyl-phenoxy)-propylsulfanyl]-phenoxy}-acetic acid], under setting [1], the EC50 was 25.2 nM and 8.9 nM and 8.8 nM. Regarding `Cc1cc(SCC(O)/C=C/c2ccc(C(F)(F)F)cc2)ccc1OCC(=O)O` (centres unmarked) [Compound 41], the midpoint of the response under setting [1], the EC50, lay at 144 nM. With `CCCCCC(COc1ccc(C(F)(F)F)cc1)CSc1ccc(OCC(=O)O)c(C)c1` (centres unmarked) [Compound 6, {2-Methyl-4-[2-(4-trifluoromethyl-phenoxymethyl)-heptylsulfanyl]-phenoxy}-acetic acid], the EC50 under setting [1] was 3.3 nM (2×) and 3.7 nM. Same read-out and setting: the same measure for `COC(COc1ccc(C(F)(F)F)cc1)CSc1ccc(OCC(=O)O)c(C)c1` (centres unmarked) [Compound 14, {4-[2-Methoxy-3-(4-trifluoromethyl-phenoxy)-propylsulfanyl]-2-methyl-phenoxy}-acetic acid]: 16.2 nM and 21.5 nM. `Cc1cc(SCC(CCC#N)COc2ccc(C(F)(F)F)cc2)ccc1OCC(=O)O` (centres unmarked) [Compound 11, {4-[4-Cyano-2-(4-trifluoromethyl-phenoxymethyl)-butylsulfanyl]-2-methyl-phenoxy}-acetic acid]: the response under setting [1] was half-maximal at 5.7 nM (EC50). Same read-out and setting: with `CCCOC(COc1ccc(C(F)(F)F)cc1)CSc1ccc(OCC(=O)O)c(C)c1` (centres unmarked) [Compound 18, {2-Methyl-4-[2-propoxy-3-(4-trifluoromethyl-phenoxy)-propylsulfanyl]-phenoxy}-acetic acid] the figure was 4.3 nM; with `C=CCOC(COc1ccc(C(F)(F)F)cc1)CSc1ccc(OCC(=O)O)c(C)c1` (centres unmarked) [Compound 21, {4-[2-Allyloxy-3-(4-trifluoromethyl-phenoxy)-propylsulfanyl]-2-methyl-phenoxy}-acetic acid], 3.7 nM and 4.2 nM. Same read-out and setting: the same measure for `CCOCCC(COc1ccc(C(F)(F)F)cc1)CSc1ccc(OCC(=O)O)c(C)c1` (centres unmarked) [Compound 37, {4-[4-Ethoxy-2-(4-trifluoromethyl-phenoxymethyl)-butylsulfanyl]-2-methyl-phenoxy}-acetic acid]: 1.9 nM and 2.9 nM. `Cc1cc(SC[C@H](O)COc2ccc(C(F)(F)F)cc2)ccc1OCC(=O)O` [Compound 43, Acetic acid, {4-(2R)-2-hydroxy-3-(4-trifluoromethyl-phenoxy)-propylsulfanyl}-2-methyl-phenoxyy]: the EC50 under setting [1] came out at 43.2 nM. On to `CCOC(CC(COc1ccc(C(F)(F)F)cc1)CSc1ccc(OCC(=O)O)c(C)c1)OCC` (centres unmarked) [Compound 36, {4-[4,4-Diethoxy-2-(4-trifluoromethyl-phenoxymethyl)-butylsulfanyl]-2-methyl-phenoxy}-acetic acid], for which the midpoint of the response under setting [1], the EC50, lay at 52.9 nM. With `Cc1cc(SCC(CC#N)COc2ccc(C(F)(F)F)cc2)ccc1OCC(=O)O` (centres unmarked) [Compound 10, {4-[3-Cyano-2-(4-trifluoromethyl-phenoxymethyl)-propylsulfanyl]-2-methyl-phenoxy}-acetic acid], under setting [1], the EC50 was 29 nM and 56 nM. As for `Cc1cc(SCC/C=C/c2ccc(C(F)(F)F)cc2)ccc1OCC(=O)O` [Compound 40, {2-Methyl-4-[4-(4-trifluoromethyl-phenyl)-but-3-enylsulfanyl]-phenoxy}-acetic acid], the EC50 under setting [1] is 39.3 nM and 43.7 nM. Turning to `COCO[C@@H](COc1ccc(C(F)(F)F)cc1)CSc1ccc(OCC(=O)O)c(C)c1` [Compound 23, (S)-{4-[2-Methoxymethoxy-3-(4-trifluoromethyl-phenoxy)-propylsulfanyl]-2-methyl-phenoxy}-acetic acid], the EC50 under setting [1] amounted to 70 nM. On the same count and under the same terms, with `COc1ccc(OC(COc2ccc(C(F)(F)F)cc2)CSc2ccc(OCC(=O)O)c(C)c2)cc1` (centres unmarked) [Compound 29, {4-[2-(4-Methoxy-phenoxy)-3-(4-trifluoromethyl-phenoxy)-propylsulfanyl]-2-methyl-phenoxy}-acetic acid] the figure was 62.1 nM. As for `CSCOC(CCc1ccc(C(F)(F)F)cc1)CSc1ccc(OCC(=O)O)c(C)c1` (centres unmarked) [Compound 39, {2-Methyl-4-[2-methylsulfanylmethoxy-4-(4-trifluoromethyl-phenyl)-butylsulfanyl]-phenoxy}-acetic Acid], the EC50 under setting [1] is 12.5 nM and 17.9 nM. On the same count and under the same terms, with `CCC(COc1ccc(C(F)(F)F)cc1)CSc1ccc(OCC(=O)O)cc1` (centres unmarked) [Compound 4, {4-[2-(4-Trifluoromethyl-phenoxymethyl)-butylsulfanyl]-phenoxy}-acetic acid] the figure was 29.6 nM; with `CCCCOC(COc1ccc(C(F)(F)F)cc1)CSc1ccc(OCC(=O)O)c(C)c1` (centres unmarked) [Compound 19, {4-[2-Butoxy-3-(4-trifluoromethyl-phenoxy)-propylsulfanyl]-2-methyl-phenoxy}-acetic acid], 7.5 nM and 6.5 nM; with `Cc1cc(SCC(O)COc2ccc(C(F)(F)F)cc2)ccc1OCC(=O)O` (centres unmarked) [Compound 13], 79 nM. Still for that read-out and setting: the same measure for `CCO[C@H](COc1ccc(C(F)(F)F)cc1)CSc1ccc(OCC(=O)O)c(C)c1` [Compound 15, (R)-{4-[2-Ethoxy-3-(4-trifluoromethyl-phenoxy)-propylsulfanyl]-2-methyl-phenoxy}-acetic acid]: 0.76 nM and 0.56 nM and 0.88 nM and 3.4 nM and 5 nM and 1.1 nM; for `Cc1ccc(OCC(O)CSc2ccc(OCC(=O)O)c(C)c2)cc1` (centres unmarked) [Compound 31]: more than 1000 nM. In the case of `Cc1cc(SCC(C)Oc2ccc(C(F)(F)F)cc2)ccc1OCC(=O)O` (centres unmarked) [Compound 7, {2-Methyl-4-[2-(4-trifluoromethyl-phenoxy)-propylsulfanyl]-phenoxy}-acetic acid], under setting [1], it took 211 nM to reach a half-maximal effect (EC50).
